PubChem BioAssay AID2305 (GlaxoSmithKline (GSK), 2010)
“And” between values parts separate entries of the source, which are not always exact repeats. Identical values can stand only once.

test system: P. falciparum 3D7 growth, pLDH absorbance; test: blood-stage malaria parasite growth potency – strain 3D7, dose response (AID 2305)

SMILES	IC50
CCCC(=O)Nc1ccc(Nc2nc(C)cc(N3CCCC3)n2)cc1	1490 nM
Cc1ccc(C(=O)NC2CC2)cc1-c1ccc2c(cnn2S(=O)(=O)c2ccc(F)cc2)c1	290 nM
NC1CCCN(Cc2cccc(-c3ccc(-c4nc5ccccc5[nH]4)s3)c2)C1 (configuration not stated)	580 nM
Fc1cccc(C=NNc2ccnc3ccc(C(F)(F)F)cc23)c1	730 nM
CC(C)[C@H](NC(=O)c1ccc(O)c(-c2cccc(C(F)(F)F)c2)c1)C(=O)NC1CCCc2ccccc21 (some centres not stated)	930 nM
CS(=O)(=O)NCCCNCc1cccc(-c2csc(-c3nc4ccccc4[nH]3)c2)c1	1010 nM
CC(C)CNCc1ccc(-c2cccc(-c3nc4ccccc4[nH]3)c2)cc1	630 nM
O=C(Nc1ccc(OC2CCN(Cc3ccco3)CC2)c(Cl)c1)c1ccc2ncccc2c1	950 nM
COc1cc2c(cc1OC)CC(NCCCCCCNCCc1ccc(Cl)cc1)CC2 (configuration not stated)	740 nM
Cc1cccc(C)c1C1CCN(CCCCNC(=O)c2cc3ccccc3[nH]2)CC1	890 nM
COc1cccc(CCc2c(CCNCCCCCCNCCc3ccccc3)ccc(OC)c2OC)c1	720 nM
CCn1cc(C=C2Oc3c(ccc(O)c3CN3CCCCC3)C2=O)c2cc(OC)ccc21	520 nM
CC(C)(CN1CCCC1)CN(Cc1ccc(-c2ccc(C(F)(F)F)cc2)cc1)C(=O)Cn1c(CCc2cccc(F)c2F)nc(=O)c2ccccc21	790 nM
FC(F)(F)c1cccc(CCNc2nccc(NCc3ccc(Cl)cc3Cl)n2)c1	860 nM
O=C(CC1CCCCC1)NCC(NCCCNc1cc(=O)c2ccccc2[nH]1)c1cc(Br)cc(Br)c1 (configuration not stated)	1050 nM
O=C(Nc1ccc(C(=O)OCC2CCCCC2)cc1)N[C@@H](Cc1ccc(O)cc1)C(=O)NC1CCN(Cc2ccc(O)cc2)C1 (some centres not stated)	870 nM
Cc1ccc2c(C3=CCN(CCCCC4(C)C(=O)Nc5c(F)cccc54)CC3)c(C)[nH]c2c1 (configuration not stated)	270 nM
O=C(Nc1cccc(Cl)c1)c1cnc(N2CCN(c3ccncc3)CC2)c(Cl)c1	960 nM
O=c1ccc(CNc2nc(NCCc3ccccc3)nc3ccc(Cl)cc23)c[nH]1	780 nM

SMILES	IC50
Cc1ccc(C(=O)Nc2cccc([N+](=O)[O-])c2)cc1S(=O)(=O)N1CC(C)CC(C)C1 (configuration not stated)	790 nM
O=C(C=Cc1ccccc1Br)NC1CCC(CN2CCC(c3c[nH]c4ccccc34)CC2)CC1 (configuration not stated)	740 nM and 690 nM
Cc1cc(Br)cnc1CCCCN=C1NC(=O)CN1C	370 nM
Cc1ccc(CNC(=O)c2cnc(N3CCN(c4ccncc4)CC3)c(Cl)c2)cc1	1290 nM
Cc1[nH]nc2ccc(-c3cc(OC[C@@H](N)Cc4ccccc4)cnc3-c3cc4ccccc4s3)cc12	810 nM
Nc1nc(N)c2c(ccc3c2ccn3Cc2ccc(-c3ccccc3)cc2)n1	50 nM
COc1ccc2nccc([C@@H](O)CN3CCC(NC(=O)/C=C/c4ccc5cc(C)[nH]c5c4)CC3)c2c1	730 nM
CCN(CC)CCOC(=O)c1ccc(NC(=O)c2cc(-c3ccc(C)cc3)nc3ccccc23)cc1	780 nM
CC(C)(C)c1ccc2nc(-c3ccc(C(=O)NCCCc4ccccc4)cc3)[nH]c2c1	800 nM
CC(Cc1ccc(OCCCCOc2ccccc2)cc1)NCCc1ccc(Oc2ccccc2)cc1 (configuration not stated)	810 nM
O=C(NCc1ccc(Cl)c(Cl)c1)c1ccc(-c2nc3ccc(Cl)cc3[nH]2)cc1	900 nM
Cc1cc(C)c2nc(N3CCC(C(=O)NCCCN4CCC(N5CCCCC5)CC4)CC3)sc2c1	840 nM
CC(C)(C)c1ccc(NC(=O)c2cccc(CN3CCCN(Cc4ccsc4)CC3)c2)cc1	760 nM
COc1ccc2cc(-c3nc(-c4c(Cl)cccc4Cl)[nH]c3-c3ccnc(NCCC4CCCN4C)c3)ccc2c1 (configuration not stated)	1030 nM
Fc1ccc([C@H]2N=C(SCCSC3=N[C@H](c4ccc(F)cc4)[C@H](c4ccc(F)cc4)N3)N[C@H]2c2ccc(F)cc2)cc1	910 nM
CS(=O)(=O)c1ccc(CNCc2cccc(-c3cccc(-c4nc5ccc(C(F)(F)F)cc5[nH]4)c3)c2)cc1	180 nM
Cn1cnc(CCNC(=O)c2cccc(-c3ccc(-c4nc5ccc(F)cc5[nH]4)cc3)c2)c1	940 nM
CC(C)(C)C(=O)Nc1ccc(C(=O)Nc2cccc(-c3nc4ccccc4[nH]3)c2)cc1	280 nM
